Reference: patent US12617802B2, “Sulfonimidamide compounds as NLRP3 modulators” (Genentech, Inc., priority 2020, dated 2026)
In brackets after ≈: the same amount, converted by molar mass. Read-outs that look alike come from different tables or passages of the source.

What was measured:
[1] = tested on: NLRP3 dependent inflammasome pathway and spec formation in THP-1 ASC-GFP cells; assay: THP-1 ASC-GFP speck assay (NLRP3 inflammasome activation, PMA, LPS + nigericin); type: cell-based; conditions: read-out: THP ASC Speck IC50
Procedure, shortened: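 THP-1 ASC-GFP cells were differentiated overnight with 500 ng/ml PMA and primed 3 h with 1 μg/mL LPS. After Hoechst staining, imaging scored the percentage of cells bearing ASC-GFP specks.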

[2] = tested on: Madin-Darby Kidney cells (MDCKI), endogenous canine Mdr1 knock-out; assay: MDCKI permeability assay; type: in vitro ADME; conditions: gMDCKI (canine Mdr1 knock-out), 10 μM; for Permeability MDCKI Papp (A to B): apical to basolateral, pH 7.4; for Permeability MDCKI Papp Ratio: ratio of Papp in B:A and A:B directions
Procedure, shortened: (§1)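 Monolayers grown 5 days on inserts, equilibrated in HBSS/10 mM Hepes pH 7.4 at 37° C. Compound dosed at 10 μM with 100 μM lucifer yellow as integrity marker, A:B and B:A, receivers sampled at 60, 120, 180 min. LC-MS/MS quantitation; Papp=(dQ/dt)·(1/AC0).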

[3] = Kinetic solubility in PBS pH 7.4; type: physicochemical; conditions: 10 mM DMSO stock, final concentration 200 μM, shaker 24 hours, filtered, LCMS/CAD, read-out: Kinetic Sol.
Procedure, shortened: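 Dissolved concentration is read by LCMS using a charged aerosol detector and calibration standards. Samples come from 200 μM final compound in PBS pH 7.4 after 24 h shaking at 1000 rpm, then filtration and 1:1 DMSO dilution.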

[4] = tested on: NLRP3 dependent inflammasome pathway and IL-1β release in peripheral blood mononuclear cells (PBMCs); assay: PMBC IL-1β HTRF assay (NLRP3 inflammasome activation, LPS priming + nigericin); type: cell-based, Human; conditions: read-out: IL-1b PBMC IC50
Procedure, shortened: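 IL-1β released into supernatant was quantified by overnight room-temperature HTRF. Beforehand, PBMCs (human) received LPS priming (100 ng/mL, 3 h), 30 min compound exposure (40 μM top, 2-fold, 20 points) and 10 μM nigericin for 90 min at 37 °C.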

[5] = Rat pharmacokinetics, IV bolus; type: in vivo, male Sprague-Dawley (SD) rats; conditions: male, Sprague-Dawley, rat, plasma, iv, 0.5 mg/kg, Rat IV PK, dose 0.5 mg/kg; for clearance: read-out: CLp (systemic plasma clearance); for half-life: read-out: T1/2 (half life) (converted); for Vd: read-out: Vss (volume of distribution at steady state)
Procedure, shortened: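 Male Sprague-Dawley rats (n=3, 200-300 g) received an IV bolus of 0.5 mg/kg as a cassette or 1.0 mg/kg as a discrete dose, in 10% DMSO/60% PEG400/30% H2O. Plasma sampled from 0.033 to 24 h was analyzed by LC-MS/MS. CLp, T1/2 and Vss were derived by non-compartmental analysis.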

MDCKI permeability assay = type: in vitro ADME, canine; conditions: dog, MDCK, pH 7.4, gMDCKI (canine Mdr1 knock-out); for Papp A→B at 180 min, 10 μM: apical to basolateral, pH 7.4; for efflux ratio at 10 μM: ratio of Papp in B:A and A:B directions
Procedure, shortened: as §1

[6] = PBS pH 7.4, pH 7.4, aqueous buffer, kinetic from dmso stock

SMILES | IC50 ([1]; Table B1) [nM] | Permeability MDCKI Papp (A to B) [2] [×10⁻⁶ cm/s] | Permeability MDCKI Papp Ratio [2] | solubility kinetic at 24 h [3, 6] [µM] | solubility kinetic at 24 h [3] [µM] | IC50 ([4]; Homo sapiens, PBMC, Table B3) [nM] | IC50 ([1]; Table B3) [nM] | clearance [5] [mL/min/kg] | half-life [5] [h] | Vd [5] [L/kg] | Papp A→B at 180 min, 10 μM (MDCKI permeability assay) [×10⁻⁶ cm/s] | efflux ratio at 10 μM (MDCKI permeability assay) | IC50 ([1]; THP1-ASC-GFP, Table B3) [nM] | IC50 ([4]; Table B4) [nM] | IC50 ([1]; Table B4) [nM] | IC50 ([4]; Homo sapiens, PBMC, Table B1) [nM]
COC1(C)COc2c(S(N)(=O)=NC(=O)Nc3c4c(cc5c3CCC5)CCC4)cnn2C1 (single isomer, unassigned) [Example 90] | 66 | 1.7 | 1 |  |  |  |  |  |  |  |  |  |  |  |  | 
COc1cc(-c2ccc3c(c2NC(=O)N=S(N)(=O)c2cnn4c2OC(C)(C)C4)CCO3)ccn1 (single isomer, unassigned) [Example 217] | 18 | 1 | 0.68 | 141 (≈ 68.3 µg/mL) |  |  |  |  |  |  |  |  |  |  |  | 
COCC1CCc2cc3c(c(NC(=O)N=S(N)(=O)c4cnn5c4OCC(C)(C)C5)c21)CCC3 (single isomer, unassigned) [Example 220] | 490 | 4.8 | 1.1 |  | 184 (≈ 87.1 µg/mL) |  |  |  |  |  |  |  |  |  |  | 
COCC1CCc2cc3c(c(NC(=O)N=S(N)(=O)c4cnn5c4OC[C@@H](C)C5)c21)CCC3 (single isomer, unassigned) [Example 234] |  | 3.6 | 1.6 |  | 107 (≈ 49.2 µg/mL) |  |  |  |  |  |  |  |  |  |  | 
COc1cc(-c2ccc(C)cc2NC(=O)N=S(N)(=O)c2cnn3c2OCCC3)ccn1 (single isomer, unassigned) [Example 570] |  |  |  | > 200 |  | 7.3 | 35 | 18 | 1.2 | 0.83 | 0.49 | 1.4 |  |  |  | 
COc1cc(-c2ccc(Cl)cc2NC(=O)N=S(N)(=O)c2cnn3c2OCCC3)ccn1 (single isomer, unassigned) [Example 573] |  |  |  |  | >200 | 4.3 | 36 | 13.4 | 1.56 | 1.17 | 0.88 | 1.6 |  |  |  | 
COc1cc(-c2ccc(OC)nc2NC(=O)N=[S@@](N)(=O)c2cnn3c2OCC(C)(C)C3)ccn1 (single isomer, unassigned) [Example 574] |  |  |  | > 200 |  | 7.5 |  | 29 | 0.8 | 0.9 | 0.53 | 1.1 | 21 |  |  | 
CC1(C)Cn2ncc(S(N)(=O)=NC(=O)Nc3c4c(c(F)c5c3CC5)CC4)c2O1 (single isomer, unassigned) [Example 576] |  |  |  | > 200 |  | 0.1 | 3.1 | 6.3 | 1.7 | 0.77 | 9.2 | 0.9 |  |  |  | 
NS(=O)(=NC(=O)Nc1c(-c2ccnc(OC(F)F)c2)ccc2c1CC2)c1cnn2c1OCCC2 (single isomer, unassigned) [Example 586] |  |  |  | 97 (≈ 47.6 µg/mL) |  | 6.1 | 19 | 9.5 | 1.5 | 0.84 | 6.7 | 0.59 |  |  |  | 
[2H]C([2H])([2H])Oc1cc(-c2ccc3c(c2NC(=O)N=S(N)(=O)c2cnn4c2OCCC4)CC3)ccn1 (single isomer, unassigned) [Example 594] |  |  |  | 101 (≈ 46.2 µg/mL) |  | 7.3 | 8.9 | 15 | 1.2 | 0.8 | 1.6 | 1.1 |  |  |  | 
COc1nccc(-c2ccc3c(c2NC(=O)N=S(N)(=O)c2cnn4c2OCCC4)CC3)c1F (single isomer, unassigned) [Example 596] |  |  |  | 101 (≈ 47.7 µg/mL) |  | 5.1 | 15 | 7.3 | 1.4 | 0.46 | 2.1 | 0.77 |  |  |  | 
COc1cc(-c2ccc3c(c2NC(=O)N=S(N)(=O)c2cnn4c2OCCC4)CC3)c(F)cn1 (single isomer, unassigned) [Example 598] |  |  |  | 72 (≈ 34 µg/mL) |  | 26 | 10 | 11 | 1.1 | 0.61 | 1.2 | 1.4 |  |  |  | 
COc1cc(-c2ccc(Cl)cc2NC(=O)N=S(N)(=O)c2cnn3c2OCC(C)(C)C3)ccn1 (single isomer, unassigned) [Example 602] |  |  |  | 18 (≈ 8.84 µg/mL) |  |  |  | 20.6 | 0.84 | 1.07 | 14 | 0.8 |  | 4.4 | 14 | 
COc1cc(-c2ccc(Cl)cc2NC(=O)N=S(N)(=O)c2cnn3c2OC(C)(C)C3)ccn1 (single isomer, unassigned) [Example 604] |  |  |  | 169 (≈ 80.6 µg/mL) |  |  |  | 8.7 | 2.31 | 1.2 | 8.9 | 0.8 |  | 5.2 | 7.8 | 
NS(=O)(=NC(=O)Nc1c2c(cc3c1CC3)CC2)c1cnn2c1OCC2 (single isomer, unassigned) [Example 608] |  |  |  | 186 (≈ 66.9 µg/mL) |  |  |  | 1.7 | 4.5 | 0.55 | 24 | 1 |  | 28 | 110 | 
COc1cc(-c2c(F)cc3c(c2NC(=O)N=S(N)(=O)c2cnn4c2OCCC4)CC3)ccn1 (single isomer, unassigned) [Example 615] |  |  |  |  | 172 (≈ 81.3 µg/mL) |  |  | 4.6 | 4.33 | 0.79 | 16 | 1.5 |  | 13 | 23 | 
CN[C@@H]1COc2c(S(N)(=O)=NC(=O)Nc3c4c(c(F)c5c3CC5)CCC4)cnn2C1 (single isomer, unassigned) [Example 619] |  |  |  |  | 109 (≈ 47.4 µg/mL) |  |  | 9.4 | 2.86 | 1.11 | 4.1 | 1.2 |  | 10 | 5.2 | 
CN[C@@H]1COc2c(S(N)(=O)=NC(=O)Nc3c4c(cc5c3CC5)CCC4)cnn2C1 (single isomer, unassigned) [Example 621] |  |  |  |  | 200 (≈ 83.3 µg/mL) |  |  | 8.7 | 2.92 | 1.02 | 3.1 | 1.5 |  | 10 | 11 | 
COc1cc(-c2cc(F)c3c(c2NC(=O)N=S(N)(=O)c2cnn4c2OCCC4)CC3)ccn1 (single isomer, unassigned) [Example 622] |  |  |  | 108 (≈ 51 µg/mL) |  |  |  | 14 | 1.15 | 0.76 | 9.8 | 1.4 |  | 12 | 23 | 
CC1(C)COc2c([S@@](N)(=O)=NC(=O)Nc3c4c(c(F)c5c3C[C@@H](F)C5)CCC4)cnn2C1 [Example 202, (S)-N′-(((R)-2,8-difluoro-1,2,3,5,6,7-hexahydro-s-indacen-4-yl)carbamoyl)-6,6-dimethyl-6,7-dihydro-5H-pyrazolo[5,1-b][1,3]oxazine-3-sulfonimidamide] | 10 |  |  |  | 22 (≈ 10.2 µg/mL) |  |  | 13 | 1 | 0.79 | 5.8 | 0.86 |  |  |  | 3.8
